Laboratory results reported in patent US10954239B2, “Imidazoquinoline amine derivatives, pharmaceutical compositions and therapeutic methods thereof” (CanWell Biotech Limited, priority 2019, dated 2021).
Read-outs that look alike come from different tables or passages of the source.

System: human PBMC
Test: TLR7/8 agonists induce cytokine release in human PBMC (ELISA of culture supernatant, 24 h)
Type: cell-based
Conditions: minimum effective concentration: lowest concentration inducing cytokine at least 2x negative control, tested 0.0152-100 μM
Method: Example 13. TLR7/8 agonists induce IFN-gamma and TNF-alpha release in human PBMC
The system is used to assess the cytokines release. Activity is based on the measurement of interferon-gamma (IFN-γ) and tumor necrosis factor-alpha (TNF-α) secreted into culture media.
Fresh human blood was diluted with the same volume of PBS, 15 mL Lymphoprep was added into a Sepmate tube, then 30 mL diluted blood was added on the top gently without disturbing the interface.
The Sepmate tube was centrifuged for 25 min at 1000×g at RT with brake off.
The buffy coat containing peripheral blood mononuclear cells (PBMCs) was collected from Sepmate tube and transferred into a new tube, and the cells were washed with 40 mL PBS twice and centrifuged at 350×g for 5 min.
PBMCs were resuspended in complete culture medium at a density of 2E6/mL.
The compounds are solubilized in dimethyl sulfoxide (DMSO) and diluted into indicated concentration with complete culture medium.
2*10^5 PBMCs (in 100 μL) were added to each well of 96-well flat bottom plate.
2× final concentration of 3-fold serial diluted compounds (in 100 μL) were added to indicated wells and final volume was 200 μL.
The plate was covered with sterile lids, mixed gently and then incubated for 24 h at 37° C./5% CO2 incubator.
Following incubation, the plates was centrifuged for 5 min. at 400×g. The cell-free culture Supernatant was removed into a non-sterile polypropylene plate. Samples are maintained at −80° C. until analysis. The samples were analyzed for TNF-α and IFN-γ by ELISA according to the direction.
TNF-α and IFN-α were analyzed by ELISA. IFN-α concentration was determined by ELISA using a Human IFN-α ELISA Kit from R&D Systems (Catalog #41100-2) and read on VICTOR Nivo™ from PerkinElmer. Results were expressed in pg/mL. TNF-α concentration was determined by ELISA using a Human TNF-alpha ELISA MAX™ Deluxe from BioLegend (Catalog #430205) and read on VICTOR Nivo™ from PerkinElmer. Results were expressed in pg/mL.
Specifically, the MEC of each compound (micromolar) was determined as the lowest concentration of the compound that induced a measured cytokine response at a level ([…]) that was at least 2× greater than that observed with the negative control wells.

[1] = read-out: MEC to induce cytokine: IFN-alpha
[2] = read-out: MEC to induce cytokine: TNF-alpha

Question: For `CCCCCCCCCCCCCCCCCNC(=O)C(=O)NCCCCOn1c(CCCC)nc2c(N)nc3ccccc3c21` [Example 1, N1-(4-((4-amino-2-butyl-1H-imidazo[4,5-c]quinolin-1-yl)oxy)butyl)-N2-heptadecyloxalamide], which minimal effective concentration [1] is on record?
Answer: > 33.3 µM

Question: What about the minimal effective concentration [2] of the same molecule?
Answer: 11.1 µM

Question: What does the source list for `CCCCCCCCCCCCCCCCCNc1c(NCCCCOn2c(CCCC)nc3c(N)nc4ccccc4c32)c(=O)c1=O` [Example 2, 3-((4-((4-amino-2-butyl-1H-imidazo[4,5-c]quinolin-1-yl)oxy)butyl)amino)-4-(heptadecylamino)cyclobut-3-ene-1,2-dione]?
Answer: minimal effective concentration [1]: 0.0152 µM; minimal effective concentration [2]: 0.0457 µM

Question: Which results are given for `CCCCCCCCCCCCCCCCN1CCC(C(=O)NCCCCOn2c(CCCC)nc3c(N)nc4ccccc4c32)CC1` [Example 3, N-(4-((4-amino-2-butyl-1H-imidazo[4,5-c]quinolin-1-yl)oxy)butyl)-1-hexadecylpiperidine-4-carboxamide]?
Answer: minimal effective concentration [1]: 0.137 µM; minimal effective concentration [2]: 0.137 µM

Question: What does the source list for `CCCCCCCCCCCCCCCCCCN(CCCCOn1c(CCCC)nc2c(N)nc3ccccc3c21)CCCN(C)C` [Example 5, N1-(4-((4-amino-2-butyl-1H-imidazo[4,5-c]quinolin-1-yl)oxy)butyl)-N3,N3-dimethyl-N1-octadecylpropane-1,3-diamine]?
Answer: minimal effective concentration [1]: 1.23 µM; minimal effective concentration [2]: 11.1 µM

Question: Which results are given for `CCCCCCCCCCCCCCCCCNC(=O)C(=O)N(CCCCOn1c(CCCC)nc2c(N)nc3ccccc3c21)CCCN(C)C` [Example 6, N1-(4-((4-amino-2-butyl-1H-imidazo[4,5-c]quinolin-1-yl)oxy)butyl)-N1-(3-(dimethylamino)propyl)-N2-heptadecyloxalamide]?
Answer: minimal effective concentration [1]: > 100 µM; minimal effective concentration [2]: > 100 µM

Question: For `CCCCCCCCCCCCCCCCCNc1c(N(CCCCOn2c(CCCC)nc3c(N)nc4ccccc4c32)CCCN(C)C)c(=O)c1=O` [Example 7, 3-((4-((4-amino-2-butyl-1H-imidazo[4,5-c]quinolin-1-yl)oxy)butyl)(3-(dimethylamino)propyl)amino)-4-(heptadecylamino)cyclobut-3-ene-1,2-dione], which minimal effective concentration [1] is on record?
Answer: 0.0152 µM

Question: And the minimal effective concentration [2]?
Answer: 0.41 µM

Question: For `CCCCCCCCCCCCCCCCCc1nc(CCCCOn2c(CCCC)nc3c(N)nc4ccccc4c32)no1` [Example 10, 2-butyl-1-(4-(5-heptadecyl-1,2,4-oxadiazol-3-yl)butoxy)-1H-imidazo[4,5-c]quinolin-4-amine], which minimal effective concentration [1] is on record?
Answer: 11.1 µM

Question: And the minimal effective concentration [2]?
Answer: 3.7 µM

Question: For `CCCCCCCCCCCCCCCCCc1noc(CCCCOn2c(CCCC)nc3c(N)nc4ccccc4c32)n1` [Example 11, 2-butyl-1-(4-(3-heptadecyl-1,2,4-oxadiazol-5-yl)butoxy)-1H-imidazo[4,5-c]quinolin-4-amine], which minimal effective concentration [1] is on record?
Answer: 11.1 µM

Question: What about the minimal effective concentration [2] of the same molecule?
Answer: 33.3 µM

Question: How did the minimal effective concentration [1] turn out when `CCCCCCCCCCCCCCCCCN(CCCN(C)C)c1c(NCCCCOn2c(CCCC)nc3c(N)nc4ccccc4c32)c(=O)c1=O` [Example 12, 3-(4-(4-amino-2-butyl-1H-imidazo[4,5-c]quinolin-1-yloxy)butylamino)-4-((3-(dimethylamino)propyl)(heptadecyl)amino)cyclobut-3-ene-1,2-dione] was run?
Answer: 0.0152 µM

Question: What about the minimal effective concentration [2] of the same molecule?
Answer: 0.41 µM
